Patent publication US20240024403A1, “Compositions and Methods for Managing Weight” (Unigen, Inc., priority 2012, published 2024)

Experiment: High fat diet induced obesity (DIO) mouse model
Format: in vivo, C57CL/6J mice
Conditions: for Total Body Weight / Body Weight: in g (unit assumed)
Experimental: C57CL/6J mice aged 4-6 weeks (Korea Research Institute of Bioscience & Biotechnology, Ohchang, Korea) were housed in Polycarbonate cages (five mice per cage) in a room with a 12 hr:12 hr light-dark cycle and an ambient temperature of 24° C. All the mice were fed a commercial chow diet for 1 week after arrival in the animal facility. Mice were then divided into normal and obesity groups and fed with normal diet (ND) and high fat diets (HFD) respectively. The HFD group was divided into multiple treatment groups: a high fat diet vehicle group (HFD), an orlistat (purchased as OTC drug Alli®) positive control treatment group (ORI, 40 mg/kg of animal weight, 2 times/day) and optionally a sibutramine positive control treatment group (10 mg/kg, 1 time/day). The HFD contained 340 g of fat/kg of HFD (310 g lard plus 30 g soybean oil; Harlan Laboratories, USA). The HFD was formulated to provide 60% of the total energy generated by the diet from fat by replacing carbohydrate energy with lard and soybean oil, whereas the normal diet (ND) group was fed a diet providing only 18% of the total diet energy from fat(Harlan Laboratories, USA).
Body weight was measured once each week and feed intake was measured twice per week. At the end of the experimental period, following a 12 hr. fasting period, the animals were anesthetized with ether, and blood was drawn from the abdominal vein. Liver and kidney and adipose tissues (epididymal, retroperitoneal, perirenal adipose tissues) were removed from each animal, rinsed with physiological saline, and weighed. Serum concentrations of glucose, total cholesterol, triglycerides, and LDL-cholesterol were determined using automatic analyzer (INTEGRA 400, Roche, Germany). Statistical significance of test results was measured using the Student's t-test.

[1] = week 3, mice fed a high fat diet, Mutamba fractions 250 mg/kg oral 2 times per day, mean
[2] = week 4, DIO mice, oral twice daily, mg/kg/day: ORI 40, Combo (Composition 1A) 800, Magnolia 100, Yerba Mate 500, Morus 200
[3] = week 4, DIO mice, combination (5:1) 1200 mg/kg twice a day by gavage, group mean
[4] = week 4, mice fed a high fat diet, Mutamba fractions 250 mg/kg oral 2 times per day, mean
[5] = week 5, DIO mice, oral twice daily, mg/kg/day: ORI 40, Combo (Composition 1A) 800, Magnolia 100, Yerba Mate 500, Morus 200
[6] = week 5, DIO mice, combination (5:1) 1200 mg/kg twice a day by gavage, group mean
[7] = week 5, mice fed a high fat diet, Mutamba fractions 250 mg/kg oral 2 times per day, mean
[8] = week 6, DIO mice, oral twice daily, mg/kg/day: ORI 40, Combo (Composition 1A) 800, Magnolia 100, Yerba Mate 500, Morus 200
[9] = week 6, DIO mice, combination (5:1) 1200 mg/kg twice a day by gavage, group mean
[10] = week 6, mice fed a high fat diet, Mutamba fractions 250 mg/kg oral 2 times per day, mean
[11] = week 7, DIO mice, oral twice daily, mg/kg/day: ORI 40, Combo (Composition 1A) 800, Magnolia 100, Yerba Mate 500, Morus 200
[12] = week 7, DIO mice, combination (5:1) 1200 mg/kg twice a day by gavage, group mean
[13] = week 7, mice fed a high fat diet, Mutamba fractions 250 mg/kg oral 2 times per day, mean
[14] = week 8, DIO mice, oral twice daily, mg/kg/day: ORI 40, Combo (Composition 1A) 800, Magnolia 100, Yerba Mate 500, Morus 200
[15] = week 8, mice fed a high fat diet, Mutamba fractions 250 mg/kg oral 2 times per day, mean

With `CCCCCCCCCCC[C@@H](C[C@@H]1OC(=O)[C@H]1CCCCCC)OC(=O)[C@H](CC(C)C)NC=O` [ORI, orlistat] the “Total Body Weight” value (week 3, DIO mice, combination (5:1) 1200 mg/kg twice a day by gavage, group mean) was 35.12, the “Total Body Weight” value (week 3, ORI 40 mg/kg, DIO mice (Table 52)) was 37.41 and the “Total Body Weight” value (week 3, ORI 40 mg/kg, DIO mice) was 35.66. The “Body Weight Gain” value (week 3, ORI 40 mg/kg, mice fed high fat diet) was −6.70, the “Body Weight Gain” value [1] was −2.63 and the “Body Weight” value [1] was 37.14. For the same compound, the “Weight Gain” value (week 3, orlistat 40 mg/kg oral) was −5.27, the “Weight Gain” value [2] was −3.84 and the “Total Body Weight” value [2] was 36.38. The “Body Weight Gain” value (week 4, DIO mice, SIB 10 mg/kg, ORI 40 mg/kg, Mutamba extract 32 (G1) 1000 mg/kg/day oral, mean) was −2.35, the “Body Weight Gain” value (week 4, DIO mice, SIB 10 mg/kg, ORI 40 mg/kg, Mutamba extract 33-2 G1 1000 mg/kg, mean) was −1.28 and the “Weight Gain” value (week 4, DIO mice, combination (1:1) 2000 mg/kg twice a day, group mean) was −2.61. For the same compound, the “Weight Gain” value [3] was −2.61, the “Total Body Weight” value [3] was 35.84 and the “Total Body Weight” value (week 4, ORI 40 mg/kg, DIO mice (Table 52)) was 37.60. For the same compound, the “Total Body Weight” value (week 4, ORI 40 mg/kg, DIO mice) was 37.28, the “Body Weight Gain” value (week 4, ORI 40 mg/kg, mice fed high fat diet) was −5.01 and the “Body Weight Gain” value [4] was −1.28. For the same compound, the “Body Weight” value [4] was 38.49, the “Weight Gain” value (week 4, orlistat 40 mg/kg oral) was −3.47 and the “Weight Gain” value [5] was −2.57. The “Total Body Weight” value [5] was 37.65, the “Body Weight Gain” value (week 5, DIO mice, SIB 10 mg/kg, ORI 40 mg/kg, Mutamba extract 32 (G1) 1000 mg/kg/day oral, mean) was −1.84 and the “Body Weight Gain” value (week 5, DIO mice, SIB 10 mg/kg, ORI 40 mg/kg, Mutamba extract 33-2 G1 1000 mg/kg, mean) was 0.43. The “Weight Gain” value (week 5, DIO mice, combination (1:1) 2000 mg/kg twice a day, group mean) was −2.04, the “Weight Gain” value [6] was −2.04 and the “Total Body Weight” value [6] was 36.41. For the same compound, the “Total Body Weight” value (week 5, ORI 40 mg/kg, DIO mice (Table 52)) was 38.12, the “Total Body Weight” value (week 5, ORI 40 mg/kg, DIO mice) was 38.57 and the “Body Weight Gain” value (week 5, ORI 40 mg/kg, mice fed high fat diet) was −3.81. The “Body Weight Gain” value [7] was 0.43, the “Body Weight” value [7] was 40.19 and the “Weight Gain” value (week 5, orlistat 40 mg/kg oral) was −2.34. For the same compound, the “Weight Gain” value [8] was −1.47, the “Total Body Weight” value [8] was 38.75 and the “Body Weight Gain” value (week 6, DIO mice, SIB 10 mg/kg, ORI 40 mg/kg, Mutamba extract 32 (G1) 1000 mg/kg/day oral, mean) was 0.08. The “Body Weight Gain” value (week 6, DIO mice, SIB 10 mg/kg, ORI 40 mg/kg, Mutamba extract 33-2 G1 1000 mg/kg, mean) was 3.52, the “Weight Gain” value (week 6, DIO mice, combination (1:1) 2000 mg/kg twice a day, group mean) was −1.65 and the “Weight Gain” value [9] was −1.65. For the same compound, the “Total Body Weight” value [9] was 36.80, the “Total Body Weight” value (week 6, ORI 40 mg/kg, DIO mice (Table 52)) was 40.04 and the “Total Body Weight” value (week 6, ORI 40 mg/kg, DIO mice) was 40.03. The “Body Weight Gain” value (week 6, ORI 40 mg/kg, mice fed high fat diet) was −2.36, the “Body Weight Gain” value [10] was 3.52 and the “Body Weight” value [10] was 43.28. For the same compound, the “Weight Gain” value (week 6, orlistat 40 mg/kg oral) was −1.08, the “Weight Gain” value [11] was −0.26 and the “Total Body Weight” value [11] was 39.96. The “Body Weight Gain” value (week 7, DIO mice, SIB 10 mg/kg, ORI 40 mg/kg, Mutamba extract 32 (G1) 1000 mg/kg/day oral, mean) was 1.81, the “Body Weight Gain” value (week 7, DIO mice, SIB 10 mg/kg, ORI 40 mg/kg, Mutamba extract 33-2 G1 1000 mg/kg, mean) was 3.72 and the “Weight Gain” value [12] was −0.07. For the same compound, the “Total Body Weight” value [12] was 38.38, the “Total Body Weight” value (week 7, ORI 40 mg/kg, DIO mice (Table 52)) was 41.77 and the “Total Body Weight” value (week 7, ORI 40 mg/kg, DIO mice) was 40.91. The “Body Weight Gain” value (week 7, ORI 40 mg/kg, mice fed high fat diet) was −1.42, the “Body Weight Gain” value [13] was 3.72 and the “Body Weight” value [13] was 43.49. For the same compound, the “Weight Gain” value (week 7, orlistat 40 mg/kg oral) was 0.02, the “Weight Gain” value [14] was −0.23 and the “Total Body Weight” value [14] was 39.99. The “Body Weight Gain” value (week 8, DIO mice, SIB 10 mg/kg, ORI 40 mg/kg, Mutamba extract 32 (G1) 1000 mg/kg/day oral, mean) was 2.10, the “Body Weight Gain” value (week 8, DIO mice, SIB 10 mg/kg, ORI 40 mg/kg, Mutamba extract 33-2 G1 1000 mg/kg, mean) was 5.13 and the “Total Body Weight” value (week 8, ORI 40 mg/kg, DIO mice (Table 52)) was 42.06. For the same compound, the “Body Weight Gain” value [15] was 5.13 and the “Body Weight” value [15] was 44.90.
